From ChEMBL document CHEMBL3430912, “GSK Tres Cantos Anti-Kinetoplastid Screening (TCAKS) Data”

How the values were obtained:
[1] = tested on: Trypanosoma brucei brucei; test: GSK_TCAKS: pIC50 Trypanosoma brucei viability assay using luminiscence. Assay plates (1536-well) were prepared. T. brucei cultures were harvested and counted in a CASY cell counter. A parasite suspension was prepared at a final concentration of 5 * 10^4 cells/mL in complete HMI9 medium and 6uL was dispensed to all wells containing compounds using a Multidrop Combi dispenser. 6uL of HMI9 media with 0.4% DMSO were dispensed to control columns. Plates were incubated for 24 h at 37C, 5% CO2 then tempered for 10 min at room temperature. ATP content was quantified by adding 4 uL of CellTiter-Glo Reagent (Promega) according to the manufacturer's instructions. Luminescence was measured using a ViewLux.; type: functional, organism-based; details: Lister 427, CASY
[2] = GSK_TCAKS: pIC50 HepG2 human cell line viability assay using luminiscence. […] Seeding density was checked to ensure that new mono-layers were not more than 50% confluent at the time of harvesting. Cell suspension was added to 500 mL of the same medium at a final density of 1.2 * 10^5 cells/mL. This cell suspension was dispensed (25 uL, 3000 cells per well) into 384-well clear-bottom plates using a Multidrop Combi dispenser. Prior to addition of the cell suspension, the screening compounds (250 nL) were pre-dispensed into the plates with an Echo liquid handler. Plates were incubated for 48 h at 37C, 5% CO2. After incubation, plates equilibrated at room temperature for 30 min before proceeding to develop the luminescent signal. The signal developer, CellTiter-Glo Reagent, was allowed to equilibrate at room temperature for 30 min and added to the plates (25uL per well) using a Multidrop Combi dispenser. Plates were left for 10 min at room temperature for stabilization and then read using a ViewLux.; type: toxicity, cell-based
Leishmania donovani [3] = test: GSK_TCAKS: pIC50 Leishmania donovani viability assay using fluorescence intensity. Assay plates (1536-well) were prepared by adding 30nL per well of compound. For single shot assay, the final compound concentration was 5uM. […] Briefly, eGFP LdBOB axenic amastigotes were harvested, fixed and counted in a CASY cell counter (Roche-Applied Science). A final concentration of 1.5 * 10^5 cells per well were prepared in amastigote media containing 500 U/mL penicillin/streptomycin (Invitrogen) and 6uL was dispensed to each experimental well using a Multidrop Combi dispenser (Thermo Scientific). 6uL of assay media was dispensed to control columns used as reference for 100% compound response. Following incubation for 72 h at 37C, 5% CO2, 2 uL of resazurin was added to each well at a final concentration of 0.5 mM in phosphate buffered saline (PBS) with IGEPAL (Sigma-Aldrich), 0.05% (v/v).; type: functional, organism-based
Leishmania donovani [4] = test: GSK_TCAKS: pIC50 Leishmania donovani Imaging: THP-1 Host Macrophages. Assay plates (384-well) were prepared by adding 250nL of compound to each well. For single shot assay, the final compound concentration was 5 uM. […] Automated image analysis was performed with a script developed on Acapella High Content Imaging and Analysis Software (PerkinElmer). Output: THP-1 cell count were reported for each well.; type: functional, organism-based, Homo sapiens
Leishmania donovani [5] = test: GSK_TCAKS: pIC50 Leishmania donovani Imaging: Amastigotes/Macrophages. Assay plates (384-well) were prepared by adding 250nL of compound to each well. For single shot assay, the final compound concentration was 5 uM. […] Automated image analysis was performed with a script developed on Acapella High Content Imaging and Analysis Software (PerkinElmer). Output: Average number of amastigotes per macrophage cell were reported for each well.; type: functional, organism-based, Homo sapiens; details: THP-1
Trypanosoma cruzi [6] = test: (§1) GSK_TCAKS: pIC50 H2C9 Imaging: H9c2 Host Cardiomyocytes. […] Cells were then washed once with PBS before infection. T. cruzi trypomastigotes, collected at days 5 to 8 after infection from LLC-MK2 parasite infected cultures, were allowed to swim out for 4h at 37C from a centrifuged pellet (2,500 rpm/10 min/room temperature). Trypomastigotes were then collected and counted in a CASY Cell Counter. Trypomastigotes, in supplemented DMEM, were added to H9c2 cultures in a multiplicity of infection of 1 and incubated for 18 h. Cells were washed once with PBS before incubation of the infected H9c2 monolayer with trypsin (Life-Technologies) to detach cells from the flask. Cells were counted in a CASY Cell Counter using a 150 um capillary and their density set at 5 * 10^4 cells per mL in supplemented assay DMEM. Infected H9c2 were dispensed into 384-well poly-lysine coated assay plates at 50uL per well using a Multidrop Combi dispenser. After seeding them, the plates were incubated at 37C, 5% CO2 for 72h. Cultures were then fixed and stained by addition of 50 uL of a solution containing 8% formaldehyde and 4 uM DRAQ5 DNA dye (BioStatus, UK) per well. […] Five images were collected per well for reliable statistical analysis. Automated image analysis was performed with a script developed on Acapella High Content Imaging and Analysis Software (PerkinElmer). Output: Number of H9c2 Host Cardiomyocytes nuclei to determine drug-related cytotoxicity.; type: functional, organism-based, Rattus norvegicus; details: H9c2, 4 h
[7] = molecular target: Sterol 14-alpha demethylase (Trypanosoma cruzi (strain CL Brener), UniProt Q7Z1V1); test: GSK_TCAKS: pIC50 CYP51 from Trypanosoma cruzi.; type: functional
Sterol 14-alpha demethylase, sequence (Q7Z1V1 whole entry): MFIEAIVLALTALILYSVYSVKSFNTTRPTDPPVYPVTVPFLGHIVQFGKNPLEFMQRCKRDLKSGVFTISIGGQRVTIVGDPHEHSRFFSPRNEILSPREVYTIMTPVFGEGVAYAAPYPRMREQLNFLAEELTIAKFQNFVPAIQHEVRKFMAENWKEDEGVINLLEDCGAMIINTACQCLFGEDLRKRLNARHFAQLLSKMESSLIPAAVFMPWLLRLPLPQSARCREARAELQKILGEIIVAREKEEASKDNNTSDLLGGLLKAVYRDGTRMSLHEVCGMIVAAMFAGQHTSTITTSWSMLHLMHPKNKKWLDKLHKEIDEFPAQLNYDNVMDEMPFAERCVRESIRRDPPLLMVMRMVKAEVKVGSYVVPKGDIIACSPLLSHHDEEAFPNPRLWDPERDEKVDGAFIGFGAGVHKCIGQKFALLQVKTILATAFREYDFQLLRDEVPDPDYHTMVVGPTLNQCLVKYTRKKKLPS

Trypanosoma cruzi [8] = test: GSK_TCAKS: pIC50 Trypanosoma cruzi viability assay using beta-GAL activity. This assay was run at single shot at 5uM compound concentration per well. The biological reagents consisted of NIH-3T3 host cells and trypomastigotes parasitic cells; both cell types were set to a 3.3 * 10^5 cells/mL dilution in assay DMEM by means of a CASY cell counter device using a 60um capillary. 6 uL of the mixture were dispensed per well (about 1 * 10^3 host-cells and 1 * 10^3 parasites) with a Multidrop Combi dispenser. […] In all wells, the percentage of DMSO never exceeded 0.5%. Plates incubated for four days at 37C, 5% CO2. The substrate used for the assay fluorescence intensity (FLINT) readout was resorufin-beta-D-galactopiranoside (Sigma-Aldrich) at 5uM per well. It was diluted in PBS supplemented with the soft detergent Igepal (Fluka).; type: functional, organism-based, Mus musculus; details: Tulahuen, NIH3T3
Leishmania donovani [9] = test: GSK_TCAKS: pIC50 Leishmania donovani Imaging: Infected Macrophages. Assay plates (384-well) were prepared by adding 250nL of compound to each well. For single shot assay, the final compound concentration was 5 uM. […] Automated image analysis was performed with a script developed on Acapella High Content Imaging and Analysis Software (PerkinElmer). Output: Percent of infected macrophage cells were reported for each well.; type: functional, organism-based, Homo sapiens; details: THP-1
Trypanosoma cruzi [10] = test: as §1, with “Trypanosoma cruzi” for “H2C9”, “Infected Cells.” for “H9c2 Host Cardiomyocytes.”, “percentage” for “Number”, “infected cells per well as a second infection marker.” for “H9c2 Host Cardiomyocytes nuclei to determine drug-related cytotoxicity.”; type: functional, organism-based, Rattus norvegicus; details: H9c2, 4 h
[11] = tested on: Trypanosoma brucei brucei; test: GSK_TCAKS: pIC50 Trypanosoma brucei viability assay using fluorescence intensity. Assay plates (1536-well) were prepared by dispensing 25nL of compound solution per well using an Echo acoustic dispenser (Labcyte).; type: functional, organism-based; details: Lister 427, 2 h
Trypanosoma cruzi [12] = test: as §1, with “Trypanosoma cruzi” for “H2C9”, “Amastigotes/Cell.” for “H9c2 Host Cardiomyocytes.”, “number” for “Number”, “amastigotes per cell as infection level measurement.” for “H9c2 Host Cardiomyocytes nuclei to determine drug-related cytotoxicity.”; type: functional, organism-based, Rattus norvegicus; details: H9c2, 4 h

Structure (SMILES) | IC50 [1] [µM] | IC50 at 48 h [2] [µM] | IC50 (Leishmania donovani [3]) [µM] | IC50 (Leishmania donovani [4]) [µM] | IC50 (Leishmania donovani [5]) [µM] | IC50 (Trypanosoma cruzi [6]) [µM] | IC50 [7] [µM] | IC50 (Trypanosoma cruzi [8]) [µM] | IC50 (Leishmania donovani [9]) [µM] | IC50 (Trypanosoma cruzi [10]) [µM] | IC50 [11] [µM] | IC50 (Trypanosoma cruzi [12]) [µM]
COc1ccccc1-n1c(SCC(=O)Nc2ccc3c(c2)OCO3)nc2c(c1=O)SCC2 | > 39.8 | > 100 | 10 | > 50.1 | 5.01 | > 50.1 | 63.1 | 39.8 | 7.94 | 15.8 | > 39.8 | 7.94
CN(Cc1nc2ccc(C(=O)NCC3CCCCC3)cc2[nH]1)C1CCCc2cccnc21 (configuration not stated) | 0.316 | 15.8 | 3.16 | 6.31 | 0.398 | 5.01 | 39.8 | 0.501 | 0.501 | 0.631 | 0.794 | 0.316
COc1ccc2ncc(Cl)c(CCN3CC[C@@H](NCc4cc5c(cn4)OCS5)[C@H](O)C3)c2n1 | 0.398 | 50.1 | 10 | 25.1 | 7.94 | 25.1 | 1 | 0.126 | 12.6 | 0.0794 | 0.316 | 0.0631
COc1ccc2ncc(Cl)c(CCN3CC[C@H](NCc4cc5c(cn4)OCS5)[C@@H](O)C3)c2n1 | 0.631 | 25.1 | 2 | 6.31 | 0.501 | 10 | 7.94 | 0.126 | 1 | 0.158 | 0.316 | 0.1
C[C@@H](Oc1cc(-n2cnc3ccc(O[C@H]4CCNC4)cc32)sc1C(N)=O)c1ccccc1Cl | 0.794 | 15.8 | > 50.1 | 6.31 | 5.01 | 0.631 | 1.26 | 3.16 | 7.94 | 12.6 | 0.251 | 6.31
O=C(Cc1ccccc1)Nc1ccccc1C(=O)Nc1nccs1 | 0.251 | > 100 | > 50.1 | > 50.1 | > 50.1 | > 50.1 | > 100 | 39.8 | > 50.1 | > 50.1 | 0.251 | > 50.1
CC(C)(C)c1csc(NC(=O)c2ccc([N+](=O)[O-])s2)n1 | 1.58 | 50.1 | 1.58 | > 50.1 | 2.51 | 12.6 | 7.94 | 0.158 | 3.16 | 0.316 | 0.2 | 0.2
CCN(Cc1nc2ccc(C(=O)N3CCN(c4ncccn4)CC3)cc2[nH]1)C1CCCc2cccnc21 (configuration not stated) | 5.01 | > 100 | 5.01 | 20 | 1.58 | 15.8 | 7.94 | 1.26 | 3.98 | 12.6 | 2.51 | 2
O=C(Nc1nc(-c2ccc(F)cc2)cs1)c1ccc([N+](=O)[O-])s1 | 1.26 | 12.6 | 0.631 | 7.94 | 1 | 3.98 | 50.1 | 0.2 | 1.26 | 0.251 | 0.251 | 0.158
COc1ccc(-c2csc(NC(=O)c3ccc([N+](=O)[O-])s3)n2)cc1 | 0.794 | > 100 | 3.16 | > 50.1 | 1.58 | 31.6 | > 100 | 0.158 | 3.98 | 0.251 | 0.0794 | 0.2
CN(Cc1nc2cccc(C(=O)N3CCN(Cc4ccccc4)CC3)c2[nH]1)C1CCCc2cccnc21 (configuration not stated) | 1 | 12.6 | 5.01 | 10 | 0.794 | 7.94 | 39.8 | 0.794 | 1.26 | 0.501 | 0.631 | 0.501
